Data from patent publication US8871933B2, “Purified pyrroloquinolinyl-pyrrolidine-2,5-dione compositions and methods for preparing and using same” (ArQule, Inc., priority 2009, dated 2014).

Key:
[1] = system: A549 human lung cancer cells; assay: Annexin V / propidium iodide apoptosis staining; type: cell-based; set-up: dose or concentration left out as unconfirmed
Description: A549 human lung cancer cells in a 96-well plate (Costar 3603, 5,000/well) were treated with either A) DMSO as a control; B) […] (−)-trans-3-(5,6-dihydro-4H-pyrrolo[3,2,1-ij]quinolin-1-yl)-4-(1H-indol-3-yl)pyrrolidine-2,5-dione for 38 hours before addition of 1:200 fluorescent Annexin V (green) and 1:500 Propidium iodide (magenta, final concentration of […]). The labeling procedure was allowed to process at 37° C. for 20 minutes followed by image acquisition and analysis using an IC100 Image Cytometer (Beckman Coulter, Inc) with 10× amplification. To determine whether (−)-trans-3-(5,6-dihydro-4H-pyrrolo[3,2,1-ij]quinolin-1-yl)-4-(1H-indol-3-yl)pyrrolidine-2,5-dione works primarily through a cytostatic or apoptotic mechanism, cancer cells exposed to (−)-trans-3-(5,6-dihydro-4H-pyrrolo[3,2,1-ij]quinolin-1-yl)-4-(1H-indol-3-yl)pyrrolidine-2,5-dione were stained with fluorescently labeled Annexin V (green fluorescence) and propidium iodide (bright magenta fluorescence). Annexin V is a well-validated reagent that specifically binds with high affinity to externalized membrane phosphatidylserine, an early marker of the onset of apoptosis, while propidium iodide is a marker for dead cells. […] (See, FIG. 6)

c-Met [2] = biological target: T1, c-Met (Homo sapiens, UniProt P08581); assay: c-Met in tumor biopsies from treated patients; type: in vivo; set-up: the c-Met protein in tumor biopsies from patients; from tissue; host or cells: tumour biopsies from treated patients; details: patients treated with the drug
[3] = system: HT-29 human colon cancer cells; assay: Human colon cancer xenograft; type: in vivo, female athymic nude mice; details: for optimal tumor growth inhibition: 20 treatments
Description: In a human colon cancer xenograft model HT-29 human colon cancer cells were inoculated subcutaneously into female athymic nude mice (5×10^6 cells/mouse) and allowed to form palpable tumors. Once the tumors reached approximately 60 mm^3, the animals were treated orally with either (−)-trans-3-(5,6-dihydro-4H-pyrrolo[3,2,1-ij]quinolin-1-yl)-4-(1H-indol-3-yl)pyrrolidine-2,5-dione at 200 mg/kg or 300 mg/kg, or vehicle control daily (5 consecutive days, followed by a 2 day dosing holiday). (−)-trans-3-(5,6-dihydro-4H-pyrrolo[3,2,1-ij]quinolin-1-yl)-4-(1H-indol-3-yl)pyrrolidine-2,5-dione was formulated in PEG 400:20% Vitamin E TPGS (60:40). The animals received a total of 20 treatments of either (−)-trans-3-(5,6-dihydro-4H-pyrrolo[3,2,1-ij]quinolin-1-yl)-4-(1H-indol-3-yl)pyrrolidine-2,5-dione or vehicle control. Tumors were measured throughout treatment and the post-treatment observation period. Each point represents the mean±SEM often tumors. (See, FIG. 9, Panel A)

Flt4 = Flt4 (Homo sapiens, UniProt P35916); assay: Kinase panel inhibition, Flt4; type: biochemical
Description: (§1) (−)-trans-3-(5,6-dihydro-4H-pyrrolo[3,2,1-ij]quinolin-1-yl)-4-(1H-indol-3-yl)pyrrolidine-2,5-dione was assessed for its activity to inhibit a large panel (n=230) of human kinases.

tumors = assay: Clinical studies (tolerability and tumor responses); type: in vivo, human
Source text: (−)-trans-3-(5,6-dihydro-4H-pyrrolo[3,2,1-ij]quinolin-1-yl)-4-(1H-indol-3-yl)pyrrolidine-2,5,-dione is a selective inhibitor of c-Met, a receptor tyrosine kinase. When abnormally activated, c-Met plays multiple roles in aspects of human cancer, including cancer cell growth, survival, angiogenesis, invasion and metastasis.

c-Met [4] = biological target: T1, c-Met; assay: Kinase inhibition, c-Met; type: biochemical; details: read-out: inhibitory constant (Ki)
Description: as §1

PAK3 = PAK3 (Homo sapiens, UniProt O75914); assay: Kinase panel inhibition, PAK3; type: biochemical
Description: as §1

[5] = system: MDA-MB-231 human breast cancer cells; assay: Human breast cancer xenograft; type: in vivo, female athymic nude mice
Description: MDA-MB-231 human breast cancer cells were inoculated subcutaneously into female athymic nude mice (8.0×10^6 cells/mouse) and allowed to form palpable tumors. Once the tumors reached approximately 60 mm^3, the animals were treated orally with (−)-trans-3-(5,6-dihydro-4H-pyrrolo[3,2,1-ij]quinolin-1-yl)-4-(1H-indol-3-yl)pyrrolidine-2,5-dione at 200 mg/kg or vehicle control daily (5 consecutive days, followed by a 2 day dosing holiday). (−)-trans-3-(5,6-dihydro-4H-pyrrolo[3,2,1-ij]quinolin-1-yl)-4-(1H-indol-3-yl)pyrrolidine-2,5-dione was formulated in PEG 400:20% Vitamin E TPGS (60:40). The animals received a total of 20 doses of (−)-trans-3-(5,6-dihydro-4H-pyrrolo[3,2,1-ij]quinolin-1-yl)-4-(1H-indol-3-yl)pyrrolidine-2,5-dione or vehicle control. Tumors were measured throughout treatment and the post-treatment observation period. Each point represents the mean±SEM of ten tumors. (See, FIG. 8)

[6] = system: clear cell sarcoma and MiT-associated tumors; assay: Clinical study in patients with clear cell sarcoma and MiT-associated tumors; type: in vivo, human
Source text: The present example describes the inhibition of c-Met Receptor Tyrosine Kinase in Clear Cell Sarcoma and MiT (Microphthalmia Transcription Factor)-Associated Tumors. […] The studies described in the present example used (−)-trans-3-(5,6-dihydro-4H-pyrrolo[3,2,1-ij]quinolin-1-yl)-4-(1H-indol-3-yl)pyrrolidine-2,5,-dione, a small molecule inhibitor of the c-Met receptor tyrosine kinase.
(−)-trans-3-(5,6-dihydro-4H-pyrrolo[3,2,1-ij]quinolin-1-yl)-4-(1H-indol-3-yl)pyrrolidine-2,5,-dione was administered to a patient with clear cell sarcoma. […]
(−)-trans-3-(5,6-dihydro-4H-pyrrolo[3,2,1-ij]quinolin-1-yl)-4-(1H-indol-3-yl)pyrrolidine-2,5,-dione is administered to patients with MiT (Microphthalmia Transcription Factor)-associated tumors. MiT tumors, which can include clear cell sarcoma (CCS), alveolar soft part sarcoma (ASPS) and translocation-associated renal cell carcinoma (RCC), are linked biologically through a common chromosomal abnormality that is responsible for the overexpression of c-Met resulting in the development of these tumors. Tumors with this abnormality are resistant to current therapies and, in the absence of successful surgical resection, are invariably fatal.

T1 sequence (P08581 25-1390): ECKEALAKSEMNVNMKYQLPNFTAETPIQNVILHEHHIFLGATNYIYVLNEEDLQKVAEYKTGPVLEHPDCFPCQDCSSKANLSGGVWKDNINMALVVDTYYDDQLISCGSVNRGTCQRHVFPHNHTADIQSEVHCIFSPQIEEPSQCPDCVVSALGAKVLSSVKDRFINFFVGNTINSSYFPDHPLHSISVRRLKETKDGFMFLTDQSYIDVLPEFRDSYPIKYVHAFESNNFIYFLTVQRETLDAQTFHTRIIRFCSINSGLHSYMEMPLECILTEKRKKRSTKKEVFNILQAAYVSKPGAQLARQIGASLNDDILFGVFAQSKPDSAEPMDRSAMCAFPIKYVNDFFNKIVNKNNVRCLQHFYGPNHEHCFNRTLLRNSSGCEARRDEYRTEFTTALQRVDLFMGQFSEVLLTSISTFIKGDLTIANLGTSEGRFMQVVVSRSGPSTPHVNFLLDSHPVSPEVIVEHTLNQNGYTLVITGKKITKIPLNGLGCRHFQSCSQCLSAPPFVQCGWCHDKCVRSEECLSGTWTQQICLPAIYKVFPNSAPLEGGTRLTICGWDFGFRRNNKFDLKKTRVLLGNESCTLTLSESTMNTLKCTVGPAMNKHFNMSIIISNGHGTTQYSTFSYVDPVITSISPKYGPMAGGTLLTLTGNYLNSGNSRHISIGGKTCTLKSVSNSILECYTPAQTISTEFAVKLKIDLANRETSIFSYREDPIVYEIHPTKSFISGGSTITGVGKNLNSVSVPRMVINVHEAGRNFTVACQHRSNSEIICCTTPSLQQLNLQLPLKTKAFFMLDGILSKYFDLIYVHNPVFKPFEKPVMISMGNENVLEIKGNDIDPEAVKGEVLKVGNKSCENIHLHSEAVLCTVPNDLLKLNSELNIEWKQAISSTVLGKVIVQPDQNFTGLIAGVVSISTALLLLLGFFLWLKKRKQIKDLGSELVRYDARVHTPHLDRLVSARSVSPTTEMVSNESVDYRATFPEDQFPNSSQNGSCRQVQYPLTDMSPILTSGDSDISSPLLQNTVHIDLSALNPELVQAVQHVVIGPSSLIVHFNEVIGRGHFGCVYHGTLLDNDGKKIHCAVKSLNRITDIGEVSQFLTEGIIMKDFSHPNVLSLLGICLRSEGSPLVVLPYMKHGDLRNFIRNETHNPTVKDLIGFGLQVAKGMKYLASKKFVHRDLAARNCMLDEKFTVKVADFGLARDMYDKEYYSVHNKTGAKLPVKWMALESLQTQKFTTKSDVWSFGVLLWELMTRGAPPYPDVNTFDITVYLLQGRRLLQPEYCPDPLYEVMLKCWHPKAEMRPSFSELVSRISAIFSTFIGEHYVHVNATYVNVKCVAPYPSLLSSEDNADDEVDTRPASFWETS
Chain of PAK3 (O75914 whole entry): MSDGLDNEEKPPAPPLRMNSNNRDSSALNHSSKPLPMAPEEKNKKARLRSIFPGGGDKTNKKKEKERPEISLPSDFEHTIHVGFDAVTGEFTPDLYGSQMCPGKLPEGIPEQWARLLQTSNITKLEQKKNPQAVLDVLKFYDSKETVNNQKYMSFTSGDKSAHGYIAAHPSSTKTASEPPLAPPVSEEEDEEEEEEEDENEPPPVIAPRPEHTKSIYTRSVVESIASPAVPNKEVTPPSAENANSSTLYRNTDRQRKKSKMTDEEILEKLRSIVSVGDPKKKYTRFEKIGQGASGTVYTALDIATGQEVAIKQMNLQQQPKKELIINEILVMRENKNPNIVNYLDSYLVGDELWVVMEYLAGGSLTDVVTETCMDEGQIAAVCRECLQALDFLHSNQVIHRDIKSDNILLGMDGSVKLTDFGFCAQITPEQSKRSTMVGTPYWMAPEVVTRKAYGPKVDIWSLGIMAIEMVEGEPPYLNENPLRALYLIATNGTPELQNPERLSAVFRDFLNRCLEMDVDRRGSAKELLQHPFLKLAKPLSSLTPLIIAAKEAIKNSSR
Chain of Flt4 (P35916 25-1363): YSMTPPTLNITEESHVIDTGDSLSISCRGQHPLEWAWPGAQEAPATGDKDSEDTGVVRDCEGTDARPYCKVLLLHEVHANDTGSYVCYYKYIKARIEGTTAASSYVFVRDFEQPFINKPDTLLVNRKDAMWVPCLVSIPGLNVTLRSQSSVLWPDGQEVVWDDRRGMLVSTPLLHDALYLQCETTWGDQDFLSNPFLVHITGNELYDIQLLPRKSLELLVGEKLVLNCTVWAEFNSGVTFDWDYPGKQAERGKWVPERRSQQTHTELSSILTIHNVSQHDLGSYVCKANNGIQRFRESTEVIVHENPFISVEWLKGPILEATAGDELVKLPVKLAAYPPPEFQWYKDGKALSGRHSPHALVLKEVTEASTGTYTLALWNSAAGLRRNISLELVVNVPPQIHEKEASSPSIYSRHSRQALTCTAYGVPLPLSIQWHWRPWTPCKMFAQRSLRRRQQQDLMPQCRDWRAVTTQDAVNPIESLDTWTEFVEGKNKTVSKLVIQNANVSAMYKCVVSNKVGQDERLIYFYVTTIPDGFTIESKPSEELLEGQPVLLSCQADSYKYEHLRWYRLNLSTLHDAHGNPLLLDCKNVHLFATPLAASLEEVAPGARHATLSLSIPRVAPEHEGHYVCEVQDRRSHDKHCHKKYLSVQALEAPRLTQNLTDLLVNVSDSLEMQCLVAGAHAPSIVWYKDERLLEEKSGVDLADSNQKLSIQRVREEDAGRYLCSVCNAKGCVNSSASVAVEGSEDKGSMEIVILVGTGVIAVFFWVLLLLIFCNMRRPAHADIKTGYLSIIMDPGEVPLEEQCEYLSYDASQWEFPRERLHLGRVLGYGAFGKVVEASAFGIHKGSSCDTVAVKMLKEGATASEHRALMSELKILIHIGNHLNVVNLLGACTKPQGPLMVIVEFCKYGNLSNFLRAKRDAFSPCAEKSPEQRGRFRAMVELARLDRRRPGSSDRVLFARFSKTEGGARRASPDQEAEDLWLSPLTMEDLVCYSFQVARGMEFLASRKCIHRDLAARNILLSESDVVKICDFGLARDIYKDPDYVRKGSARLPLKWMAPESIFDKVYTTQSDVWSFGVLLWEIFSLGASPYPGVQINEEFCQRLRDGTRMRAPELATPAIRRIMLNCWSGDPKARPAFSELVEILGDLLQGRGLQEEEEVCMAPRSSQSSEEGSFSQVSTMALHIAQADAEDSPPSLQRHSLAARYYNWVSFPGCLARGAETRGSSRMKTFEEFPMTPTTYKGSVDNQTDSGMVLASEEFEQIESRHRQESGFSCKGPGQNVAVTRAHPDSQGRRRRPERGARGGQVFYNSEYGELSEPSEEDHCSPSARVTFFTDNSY

O=C1NC(=O)[C@@H](c2cn3c4c(cccc24)CCC3)[C@@H]1c1c[nH]c2ccccc12 (single isomer, unassigned) [(−)-trans-3-(5,6-dihydro-4H-pyrrolo[3,2,1-ij]quinolin-1-yl)-4-(1H-indol-3-yl)pyrrolidine-2,5-dione]
apoptosis (Annexin V staining) [1]: induced cells to undergo apoptosis | cells co-stained with both Annexin V and propidium iodide (dead cells) [1]: 10-20% | inhibition of c-Met protein in tumor biopsies (c-Met [2]): ability to inhibit the c-Met protein in tumor biopsies | optimal tumor growth inhibition ([3]; 200 mg/kg orally, p=0.006): 39% | optimal tumor growth inhibition ([3]; 300 mg/kg orally, p=0.00001): 55% | change in body weight ([3]; oral administration at 200 mg/kg or 300 mg/kg): no significant change in body weight | IC50 (Flt4): ~16 µM | tumor responses in clinical studies (tumors; broad ranges of tumors and doses): tumor responses and prolonged stable disease | tolerability in clinical studies (tumors; human, in vivo): well tolerated | Ki (c-Met [4]): ~0.36 µM | IC50 (PAK3): ~6.6 µM | Tumor growth inhibition ([5]; 200 mg/kg orally, daily 5 days on / 2 days off, 20 doses, p=0.009): 79% | change in body weight ([5]; oral administration at 200 mg/kg): no significant change in body weight | patients with stable disease ([6]; 120 mg b.i.d., 23 patients enrolled, fourteen evaluable for efficacy): ten of the evaluable patients have demonstrated stable disease | response as defined by RECIST ([6]; a patient with clear cell sarcoma): partial response
